Source: US7367933B2, “Screening of chemical compounds purified from biological sources” (Sequoia Sciences, Inc., priority 1999, dated 2008)

Key:
[1] = test system: MCF7 breast cancer, NCI-H460 lung cancer, and SF-268 CNS cancer; test: NCI in vitro 3-cell-line anticancer panel (overall statement); type: cell-based; conditions: NCI 3-cell-line panel
Experimental: (§1) In vitro cytotoxicity tests were conducted at the NCI using an in vitro 3-cell-line panel consisting of MCF7 breast cancer, NCI-H460 lung cancer, and SF-268 CNS cancer. Each cell line was inoculated and incubated in microtiter plates. After 24 hours test samples were added to a final assay concentration of 2 μg/mL and the culture was incubated for 48 hours. Results for each test sample were reported as the percentage of growth of the treated cells when compared to untreated controls. Compounds which reduced the growth of any one of the cell lines […] against standard were considered to be active.

[2] = test system: B16 melanoma; conditions: previously reported for compounds from stem bark of Taxus baccata; cited from earlier work
[3] = test system: SF-268 CNS cancer; test: NCI in vitro cytotoxicity test, 3-cell-line panel: SF-268; type: cell-based; conditions: 2 μg/mL, 48 hours incubation; less than 32% = active
Experimental: as §1

[4] = test system: NCI-H460 lung cancer; test: NCI in vitro cytotoxicity test, 3-cell-line panel: NCI-H460; type: cell-based; conditions: 2 μg/mL, 48 hours incubation; less than 32% = active
Experimental: as §1

[5] = test system: MCF7 breast cancer; test: NCI in vitro cytotoxicity test, 3-cell-line panel: MCF7; type: cell-based; conditions: 2 μg/mL, 48 hours incubation; less than 32% = active
Experimental: as §1

SMILES | anticancer activity in the 3-cell-line anticancer panel (in words) [1] | activity against B16 melanoma (in words) [2] | SF-268 CNS cancer, percentage of growth (One Dose Primary Anticancer Assay) [3] | H-460 Lung cancer, percentage of growth (One Dose Primary Anticancer Assay) [4] | MCF-7 Breast cancer, percentage of growth (One Dose Primary Anticancer Assay) [5]
CCCCCC(=O)N[C@@H](c1ccccc1)[C@@H](O)C(=O)O[C@H]1C[C@@]2(O)[C@@H](OC(=O)c3ccccc3)[C@@H]3[C@]4(OC(C)=O)CO[C@@H]4C[C@H](O[C@@H]4OC[C@@H](O)[C@H](O)[C@H]4O)[C@@]3(C)C(=O)[C@H](O)C(=C1C)C2(C)C [7-(β-xylosyl)-10-deacetyltaxol C] | active | potent activity |  |  | 
CCCCCC(=O)N[C@@H](c1ccccc1)[C@@H](O)C(=O)O[C@H]1C[C@@]2(O)[C@@H](OC(=O)c3ccccc3)[C@@H]3[C@]4(OC(C)=O)CO[C@@H]4C[C@H](O[C@@H]4OC[C@@H](O)[C@H](O)[C@H]4O)[C@@]3(C)C(=O)[C@H](OC(C)=O)C(=C1C)C2(C)C [7-(β-xylosyl)-taxol C] | active | potent activity |  |  | 
CC(=O)O[C@H]1C(=O)[C@]2(C)[C@@H](O[C@@H]3OC[C@@H](O)[C@H](O)[C@H]3O)C[C@H]3OC[C@@]3(OC(C)=O)[C@H]2[C@H](OC(=O)c2ccccc2)[C@]2(O)C[C@H](OC(=O)[C@H](O)[C@@H](NC(=O)c3ccccc3)c3ccccc3)C(C)=C1C2(C)C [7-(β-xylosyl)-taxol] | active | potent activity |  |  | 
C/C=C(\C)C(=O)N[C@@H](c1ccccc1)[C@@H](O)C(=O)O[C@H]1C[C@@]2(O)[C@@H](OC(=O)c3ccccc3)[C@@H]3[C@]4(OC(C)=O)CO[C@@H]4C[C@H](O)[C@@]3(C)C(=O)[C@H](OC(C)=O)C(=C1C)C2(C)C [Cephalomanine] |  |  | 30% | 19% | 15%
CC(=O)O[C@H]1C(=O)[C@@]2(C)[C@H]([C@H](OC(=O)c3ccccc3)[C@]3(O)C[C@H](OC(=O)[C@H](O)[C@@H](NC(=O)c4ccccc4)c4ccccc4)C(C)=C1C3(C)C)[C@]1(OC(C)=O)CO[C@@H]1C[C@@H]2O [Paclitaxel] |  |  | 30% | 13% | 23%
CC(=O)O[C@H]1C(=O)[C@@]2(C)[C@H]([C@H](OC(=O)c3ccccc3)[C@]3(O)C[C@H](OC(=O)[C@H](O)[C@@H](NC(=O)c4ccccc4)c4ccccc4)C(C)=C1C3(C)C)[C@]1(OC(C)=O)CO[C@@H]1C[C@@H]2O [TX003-17, paclitaxel] | exhibited activity in all three cell lines |  | 29% | 30% | 21%
